Laboratory results: ChEMBL document CHEMBL2073844, “Pharmacological characterization of the murine and human orthologs of multidrug-resistance protein in transfected human embryonic kidney cells” (Mol Pharmacol, 1997)
Entries after “also recorded” stand apart in the source; their conditions may differ.

Assays:
Assay type in all cases: functional, cell-based
[1] = molecular target: T1, Multidrug resistance-associated protein 1 (Mus musculus, UniProt O35379); assay: TP_TRANSPORTER: drug resistance in Mrp1-expressing HEK293 cells; conditions: human
T1 sequence (O35379 whole entry): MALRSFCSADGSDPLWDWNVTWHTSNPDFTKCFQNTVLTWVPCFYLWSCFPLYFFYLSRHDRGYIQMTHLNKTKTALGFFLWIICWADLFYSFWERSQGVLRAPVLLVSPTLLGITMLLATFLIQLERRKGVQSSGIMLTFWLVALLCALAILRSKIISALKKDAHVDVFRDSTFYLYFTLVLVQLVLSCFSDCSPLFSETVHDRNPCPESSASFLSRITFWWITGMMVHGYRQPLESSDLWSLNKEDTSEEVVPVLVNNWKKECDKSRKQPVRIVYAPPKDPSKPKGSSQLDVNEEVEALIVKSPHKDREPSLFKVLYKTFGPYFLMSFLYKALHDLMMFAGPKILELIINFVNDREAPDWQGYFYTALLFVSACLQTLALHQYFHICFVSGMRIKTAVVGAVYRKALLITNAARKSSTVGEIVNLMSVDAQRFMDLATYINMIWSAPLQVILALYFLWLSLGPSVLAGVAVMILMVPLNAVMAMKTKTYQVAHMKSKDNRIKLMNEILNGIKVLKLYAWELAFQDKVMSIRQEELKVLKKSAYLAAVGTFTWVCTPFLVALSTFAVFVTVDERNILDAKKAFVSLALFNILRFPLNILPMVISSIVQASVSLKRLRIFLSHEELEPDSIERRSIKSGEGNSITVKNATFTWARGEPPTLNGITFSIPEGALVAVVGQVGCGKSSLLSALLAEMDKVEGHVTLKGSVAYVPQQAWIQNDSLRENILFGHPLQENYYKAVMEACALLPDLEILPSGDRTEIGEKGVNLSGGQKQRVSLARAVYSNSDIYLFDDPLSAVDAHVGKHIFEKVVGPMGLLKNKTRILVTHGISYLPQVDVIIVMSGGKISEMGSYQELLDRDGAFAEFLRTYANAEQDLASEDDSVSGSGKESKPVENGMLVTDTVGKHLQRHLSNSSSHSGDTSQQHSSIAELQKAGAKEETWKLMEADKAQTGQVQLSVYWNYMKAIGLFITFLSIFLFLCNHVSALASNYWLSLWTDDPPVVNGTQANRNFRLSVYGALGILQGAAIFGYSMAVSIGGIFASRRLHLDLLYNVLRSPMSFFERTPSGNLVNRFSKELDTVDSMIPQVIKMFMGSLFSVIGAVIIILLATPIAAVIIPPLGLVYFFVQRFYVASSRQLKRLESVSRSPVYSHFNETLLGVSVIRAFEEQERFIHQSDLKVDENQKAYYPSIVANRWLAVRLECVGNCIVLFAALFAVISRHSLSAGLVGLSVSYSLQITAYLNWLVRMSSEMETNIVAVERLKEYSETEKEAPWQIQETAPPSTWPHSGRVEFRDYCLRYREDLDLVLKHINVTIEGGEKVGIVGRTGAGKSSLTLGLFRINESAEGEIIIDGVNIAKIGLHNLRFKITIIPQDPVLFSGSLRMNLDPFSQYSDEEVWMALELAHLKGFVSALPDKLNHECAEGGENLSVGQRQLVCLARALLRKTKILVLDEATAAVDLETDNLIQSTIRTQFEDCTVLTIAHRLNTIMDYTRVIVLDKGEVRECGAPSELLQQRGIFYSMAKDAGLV

[2] = molecular target: T2, Multidrug resistance-associated protein 1 (Homo sapiens, UniProt P33527); assay: TP_TRANSPORTER: drug resistance in MRP1-expressing HEK293 cells
T2 sequence (P33527 whole entry): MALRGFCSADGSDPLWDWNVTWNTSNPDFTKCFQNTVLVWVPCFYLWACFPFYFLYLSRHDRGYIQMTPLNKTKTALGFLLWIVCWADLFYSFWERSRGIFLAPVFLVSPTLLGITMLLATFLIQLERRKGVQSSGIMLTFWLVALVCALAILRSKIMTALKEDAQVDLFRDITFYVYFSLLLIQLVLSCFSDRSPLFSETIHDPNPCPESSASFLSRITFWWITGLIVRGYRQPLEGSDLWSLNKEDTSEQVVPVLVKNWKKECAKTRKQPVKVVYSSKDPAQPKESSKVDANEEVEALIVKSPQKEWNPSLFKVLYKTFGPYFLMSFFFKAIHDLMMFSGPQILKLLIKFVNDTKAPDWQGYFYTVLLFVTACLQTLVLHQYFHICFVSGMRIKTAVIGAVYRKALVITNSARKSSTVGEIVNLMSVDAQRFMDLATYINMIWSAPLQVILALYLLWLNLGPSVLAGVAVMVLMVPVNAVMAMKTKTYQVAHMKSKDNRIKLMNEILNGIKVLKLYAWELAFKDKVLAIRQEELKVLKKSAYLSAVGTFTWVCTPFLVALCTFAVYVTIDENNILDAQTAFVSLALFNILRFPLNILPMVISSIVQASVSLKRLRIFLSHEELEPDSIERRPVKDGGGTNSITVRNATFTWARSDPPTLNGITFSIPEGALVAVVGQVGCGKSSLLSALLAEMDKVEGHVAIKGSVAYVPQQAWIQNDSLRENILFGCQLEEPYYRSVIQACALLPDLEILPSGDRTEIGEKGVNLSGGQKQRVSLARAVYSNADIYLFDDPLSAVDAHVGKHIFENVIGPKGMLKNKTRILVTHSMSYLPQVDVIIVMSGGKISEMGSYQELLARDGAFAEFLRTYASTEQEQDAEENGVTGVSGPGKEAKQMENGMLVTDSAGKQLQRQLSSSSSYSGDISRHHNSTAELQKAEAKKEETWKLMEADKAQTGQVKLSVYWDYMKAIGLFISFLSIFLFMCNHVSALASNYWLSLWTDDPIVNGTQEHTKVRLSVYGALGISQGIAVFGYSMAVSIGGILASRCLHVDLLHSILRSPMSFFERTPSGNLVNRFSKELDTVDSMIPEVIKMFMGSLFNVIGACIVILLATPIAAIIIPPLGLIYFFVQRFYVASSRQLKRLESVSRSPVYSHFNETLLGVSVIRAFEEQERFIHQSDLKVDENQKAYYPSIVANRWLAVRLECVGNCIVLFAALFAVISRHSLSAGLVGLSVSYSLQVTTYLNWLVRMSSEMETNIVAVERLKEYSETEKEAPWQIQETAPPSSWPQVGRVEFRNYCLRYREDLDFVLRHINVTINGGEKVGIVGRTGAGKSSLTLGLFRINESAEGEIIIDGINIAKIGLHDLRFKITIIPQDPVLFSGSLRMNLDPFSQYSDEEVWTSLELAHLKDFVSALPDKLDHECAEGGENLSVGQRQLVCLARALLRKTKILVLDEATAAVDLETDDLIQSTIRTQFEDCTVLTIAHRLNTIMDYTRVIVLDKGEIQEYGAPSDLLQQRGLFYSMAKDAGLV

[3] = molecular target: T1, Multidrug resistance-associated protein 1; assay: TP_TRANSPORTER: efflux in Mrp1-expressing HEK293 cells; conditions: human
[4] = molecular target: T2, Multidrug resistance-associated protein 1; assay: TP_TRANSPORTER: efflux in MRP1-expressing HEK293 cells

| Structure (SMILES) | Activity [1] | Activity [2] | Activity [3] | Activity [4] |
| --- | --- | --- | --- | --- |
| COc1cc2c(c(OC)c1OC)-c1ccc(OC)c(=O)cc1[C@@H](NC(C)=O)CC2 [COLCHICINE] | substrate [+]; also recorded: is not a substrate [-] |  |  |  |
| COc1cccc2c1C(=O)c1c(O)c3c(c(O)c1C2=O)C[C@@](O)(C(=O)CO)C[C@@H]3O[C@H]1C[C@H](N)[C@H](O)[C@H](C)O1 [DOXORUBICIN] | is not a substrate [-] | substrate [+] |  |  |
| COc1cccc2c1C(=O)c1c(O)c3c(c(O)c1C2=O)C[C@@](O)(C(=O)CO)C[C@@H]3O[C@H]1C[C@H](N)[C@@H](O)[C@H](C)O1 [EPIRUBICIN] | is not a substrate [-] | substrate [+] |  |  |
| COc1cc([C@@H]2c3cc4c(cc3[C@@H](O[C@@H]3O[C@@H]5CO[C@@H](C)O[C@H]5[C@H](O)[C@H]3O)[C@H]3COC(=O)[C@H]23)OCO4)cc(OC)c1O [ETOPOSIDE] |  |  | substrate [+] | substrate [+] |
| CC[C@]1(O)C[C@H]2CN(CCc3c([nH]c4ccccc34)[C@@](C(=O)OC)(c3cc4c(cc3OC)N(C=O)[C@H]3[C@@](O)(C(=O)OC)[C@H](OC(C)=O)[C@]5(CC)C=CCN6CC[C@]43[C@@H]65)C2)C1 [VINCRISTINE] |  |  | substrate [+] |  |
